Laboratory results from article PMC10485906, “Development of a Dihydroquinoline–Pyrazoline GluN2C/2D-Selective Negative Allosteric Modulator of the N-Methyl-D-aspartate Receptor” (ACS Chemical Neuroscience, 2023).
pIC50, pKd: −log10 of the molar value. “And” between values parts separate entries of the source, which are not always exact repeats. Identical values can stand only once. Like-named read-outs stand apart in the source and are kept apart here.

Assays:
GluN1/GluN2D [1] = biological target: GluN1/GluN2D (Rattus norvegicus, UniProt P35439+Q62645); experiment: Whole-cell voltage-clamp recordings, HEK cells, GluN1/GluN2D (agonist dependence); format: cell-based; conditions: for pKd: from kON and kOFF
GluN1/GluN2D (Rattus norvegicus, UniProt P35439+Q62645), sequence (Q62645 28-1323, other chains not shown): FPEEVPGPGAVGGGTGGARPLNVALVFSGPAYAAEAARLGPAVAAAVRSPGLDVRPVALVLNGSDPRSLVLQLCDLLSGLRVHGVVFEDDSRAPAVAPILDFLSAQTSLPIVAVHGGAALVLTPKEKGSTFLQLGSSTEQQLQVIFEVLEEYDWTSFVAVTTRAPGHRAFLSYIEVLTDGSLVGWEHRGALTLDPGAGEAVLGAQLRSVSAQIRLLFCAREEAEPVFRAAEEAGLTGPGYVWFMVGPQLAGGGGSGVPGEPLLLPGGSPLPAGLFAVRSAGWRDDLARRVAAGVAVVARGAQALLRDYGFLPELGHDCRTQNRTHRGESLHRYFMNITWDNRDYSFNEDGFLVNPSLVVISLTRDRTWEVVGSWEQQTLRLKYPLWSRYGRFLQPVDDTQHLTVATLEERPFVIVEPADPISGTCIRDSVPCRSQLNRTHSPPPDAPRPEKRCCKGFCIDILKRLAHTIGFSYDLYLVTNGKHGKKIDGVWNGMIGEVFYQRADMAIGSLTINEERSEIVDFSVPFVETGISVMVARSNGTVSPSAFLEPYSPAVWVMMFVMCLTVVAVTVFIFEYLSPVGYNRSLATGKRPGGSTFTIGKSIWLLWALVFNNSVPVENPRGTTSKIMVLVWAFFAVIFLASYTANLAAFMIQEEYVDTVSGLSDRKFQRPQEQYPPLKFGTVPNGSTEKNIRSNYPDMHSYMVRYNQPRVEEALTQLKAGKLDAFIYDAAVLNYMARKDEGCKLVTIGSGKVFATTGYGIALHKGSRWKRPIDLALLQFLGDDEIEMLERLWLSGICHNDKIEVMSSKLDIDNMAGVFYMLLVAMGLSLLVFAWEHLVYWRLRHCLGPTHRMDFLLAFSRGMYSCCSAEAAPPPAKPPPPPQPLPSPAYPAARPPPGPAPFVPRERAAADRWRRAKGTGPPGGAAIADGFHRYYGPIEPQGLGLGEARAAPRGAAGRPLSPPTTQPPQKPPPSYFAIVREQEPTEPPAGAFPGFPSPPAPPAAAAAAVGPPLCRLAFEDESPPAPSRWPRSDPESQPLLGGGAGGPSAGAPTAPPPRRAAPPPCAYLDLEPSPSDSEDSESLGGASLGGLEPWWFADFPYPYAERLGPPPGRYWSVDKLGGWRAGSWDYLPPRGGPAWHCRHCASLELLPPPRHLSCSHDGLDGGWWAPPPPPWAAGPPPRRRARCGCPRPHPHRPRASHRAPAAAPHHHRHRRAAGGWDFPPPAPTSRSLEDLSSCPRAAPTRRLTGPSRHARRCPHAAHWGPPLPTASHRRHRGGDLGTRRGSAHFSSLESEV
Source text: (§1) We previously described the actions of the GluN2C/GluN2D-preferring negative allosteric modulator DQP-1105 as dependent on glutamate (but not glycine) binding, in that DQP-1105 affinity increases after GluN1/GluN2D NMDARs bind glutamate.[32] […] The concentration-dependent relaxation is indicative of an agonist-induced increase in potency that leads to re-equilibration of the inhibitor after agonist binding induces an increase in inhibitor affinity. We investigated the glutamate dependence of compound 2i (GluN1/GluN2D, Figure 4; GluN1/GluN2C, Figure S2), DQP-1105 (Figure S1), and compound (S)-2a (DQP-69;[33]Figure S3) using the same protocols.
(§2) We preincubated cells with glycine and the inhibitor 2i (DQP-997-74) and compared inhibitor potency during the peak and steady-state current responses to glutamate application. […] To investigate the time course of 2i inhibition, we fitted the relaxation of the current response with a single exponential function. If the current response time course reflects 2i binding, then the reciprocal of τinhibition should be linearly related to its concentration, with the slope equal to kON and intercept equal to kOFF. […] The deactivation of GluN1/GluN2D receptors (5.3 ± 0.2 s) was slowed by the presence of compound 2i when applied at concentrations of 0.1 μM (7.3 ± 0.3 s; p = 0.017) and 0.3 μM (10.5 ± 1.0 s; p = 0.002) but not at 0.03 μM (5.6 ± 0.3 s; p = 0.518; Figure 4E). […] This phenomenon was previously discovered for QNZ-46, a glutamate-dependent GluN2C/2D-selective inhibitor with a different structural core.[42] As proposed in that study, the prolonged deactivation may indicate that 2i slows a conformational change necessary for glutamate unbinding or 2i may need to unbind before glutamate can unbind.
(§3) In addition, we evaluated how glutamate dependence affects inhibition of responses to brief agonist applications similar to phasic glutamate release that occurs at synapses. To do so, we preincubated cells expressing GluN1/GluN2D receptors with the inhibitor 2i and then applied trains of five brief pulses of NMDA (which dissociates more rapidly than glutamate) and glycine from a pressurized micropipette to mimic repetitive synaptic transmission (Figure 4F). We measured the peak amplitude and compared the concentration–response curves for the inhibition of the first and last response (Figure 4G). The initial train of pulses in the absence of drug controls for systematic errors such as internalization of receptors.
(§4) To further evaluate whether 2i followed the law of mass action, we coapplied different concentrations of 2i with glutamate during the steady-state glutamate and glycine responses of GluN1/GluN2D receptors expressed in HEK cells (Figure 4H). […] We also fitted the onset and offset time course of the inhibition produced by compound 2i with a single exponential function (Figure 4J).
(§5) HEK293 cells (HEK, ATCC CRL-1573) were plated on glass coverslips pretreated with 0.1 mg/mL poly-D-lysine and cultured in Dulbecco’s modified Eagle medium (DMEM) plus Glutamax (GIBCO 10569-10) supplemented with 10% fetal bovine serum, 10 U/mL of penicillin, and 10 μg/mL of streptomycin at 37 °C and 5% CO2. The cells were transiently transfected with cDNA encoding rat GluN1, GluN2D, and eGFP at a ratio of 1:1:5 by using the calcium phosphate precipitation method.[48] After 24–48 h following the transfection, the cells were perfused with external recording solution that contained (in mM) 3 KCl, 150 NaCl, 0.01 EDTA, 1.0 CaCl2, 10 HEPES, and 22 D-mannitol (the pH was adjusted to 7.4 with NaOH). The patch electrodes (resistance 3–5 MΩ) were prepared from thin-walled glass micropipettes (TW150F-4, World Precision Instruments, Sarasota, FL) by a dual-stage glass micropipette puller (PC-10, Narishige, Tokyo, Japan) and filled with internal solution containing (in mM) 110 D-gluconate, 110 CsOH, 30 CsCl, 5 HEPES, 4 NaCl, 0.5 CaCl2, 2 MgCl2, 5 BAPTA, 2 NaATP, and 0.3 NaGTP. […]

GluN1/GluN2D [2] = biological target: GluN1/GluN2D (Rattus norvegicus, UniProt Q62645); experiment: as above; format: cell-based
GluN1/GluN2D (Rattus norvegicus, UniProt Q62645), sequence (Q62645 28-1323, other chains not shown): as above
Source text: as §1, §2, §3, §4, §5

[3] = Mouse plasma and brain pharmacokinetics, IV administration; format: in vivo; conditions: 5 mg/kg IV; for concentration at 0.25 h / concentration at 1 h / concentration at 3 h: male, C57BL/6, mouse, intravenous, 5 mg/kg
Protocol: IACUC-approved protocols and animal welfare regulations outlined in the “Guide for the Care and Use of Laboratory Animals” were both followed during the pharmacokinetic evaluation of all compounds. In vivo analysis was performed by Pharmaron (IP administration, Irvine, CA) and Sai Life (IV administration, Hinjewadi Pune, Pune, India).
Nine male C57BL/6 mice were administered intravenously (IV) with solution formulation of prodrug at 5 mg/kg dose (5 mL/kg) in 5% […], 5% Solutol HS-15, and 90% saline. Blood samples (∼60 μL) were collected under light isoflurane anesthesia from a set of three mice at 0.25, 1, and 3 h. Plasma was harvested by centrifugation of blood and stored at −70 ± 10 °C until analysis. Immediately after the collection of blood, brain samples were collected from each mouse at respective time points. Brain samples were homogenized using ice-cold phosphate-buffered saline (pH 7.4), and homogenates were stored below −70 ± 10 °C until analysis. The total homogenate volume was 3 times that of the brain weight. The plasma and brain concentration–time data of compounds 2i were used for the pharmacokinetic analysis. Plasma and brain samples were quantified by the fit-for-purpose LC-MS/MS method (LLOQ: 2.06 ng/mL for plasma and 5.16 ng/mL for brain).

[4] = HEK293, coapplication with glutamate
[5] = HEK293, inhibitor preapplied, linear regression of 1/τinhibition vs concentration

SMILES: O=C(O)CC(F)(F)C(=O)N1N=C(c2c(-c3ccc(Cl)cc3)c3ccccc3[nH]c2=O)CC1c1ccc(Cl)cc1 (stereo not drawn) [2i]
- koff (GluN1/GluN2D [1]; [4]): 0.05 s⁻¹
- kon (GluN1/GluN2D [1]; [4]): 210000 M⁻¹ s⁻¹
- koff (GluN1/GluN2D [1]; [5]): 0.17 s⁻¹
- kon (GluN1/GluN2D [1]; [5]): 400000 M⁻¹ s⁻¹
- pKd (GluN1/GluN2D [1]; coapplication with glutamate): 6.62
- pIC50 (GluN1/GluN2D [1]; compound coapplied with glutamate during steady-state response, read-out: IC50 steady-state inhibition, coapplication): 7.00
- pIC50 (GluN1/GluN2D [1]; fifth of 5 brief NMDA (500 μM)/glycine (250 μM) pulses at 1 s intervals, read-out: IC50 pulse 5 (95% CI)): 6.40
- pIC50 (GluN1/GluN2D [1]; first of 5 brief NMDA (500 μM)/glycine (250 μM) pulses at 1 s intervals, read-out: IC50 pulse 1 (95% CI)): 6.12
- pKd (GluN1/GluN2D [1]; inhibitor preapplied): 6.37
- pIC50 (GluN1/GluN2D [1]; peak current response to glutamate, inhibitor preapplied, read-out: IC50 peak (95% CI)): 6.64
- pIC50 (GluN1/GluN2D [1]; steady-state current response to glutamate, inhibitor preapplied, read-out: IC50 steady-state (95% CI)): 7.10
- τdeactivation following glutamate removal (GluN1/GluN2D [2]; 0.03 μM compound, mean ± SEM): 5.6 ± 0.3 s
- τdeactivation following glutamate removal (GluN1/GluN2D [2]; 0.1 μM compound, mean ± SEM): 7.3 ± 0.3 s
- τdeactivation following glutamate removal (GluN1/GluN2D [2]; 0.3 μM compound, mean ± SEM): 10.5 ± 1.0 s
- Hill slope (GluN1/GluN2D [2]; coapplication with glutamate): 0.93
- fold-change in IC50 for the peak and steady-state current responses (GluN1/GluN2D [2]; mean ± SEM, compared by ANOVA): 3.0 ± 0.3
- IC50 fold higher during peak compared to steady-state (GluN1/GluN2D [2]; ratio of IC50 values): 3 fold
- IC50 fold higher at first pulse compared to fifth pulse (GluN1/GluN2D [2]; trains of brief agonist applications): 1.9 fold
- drop of plasma levels at 1 h [3]: ~10 fold
- brain calculated concentration, individual (Group 1-3) ([3]; 0.25 h): 17.9 ng/g and 13.1 ng/g
- brain calculated concentration, Mean ([3]; 0.25 h (15 min)): 14 ng/g
- plasma concentration, individual (Group 1-3) ([3]; 0.25 hr): 585 ng/mL and 766 ng/mL
- brain calculated concentration, individual (Group 1-3) ([3]; 1 h): BLQ and 6.18 ng/g
- plasma concentration, individual (Group 1-3) ([3]; 1 hr): 41.2 ng/mL and 101 ng/mL and 68.7 ng/mL
- brain calculated concentration, individual (Group 1-3) ([3]; 3 h): BLQ
- brain levels at 3 h ([3]; 3 h): BLQ
- plasma concentration, individual (Group 1-3) ([3]; 3 hr): 5.97 ng/mL and 10.2 ng/mL
- concentration at 0.25 h ([3]; brain, 0.25 h (15 min), read-out: brain calculated concentration, Mean): 13.9 ng/g
- concentration at 0.25 h ([3]; brain, 0.25 h, read-out: brain calculated concentration, individual (Group 1-3)): 10.8 ng/g
- concentration at 1 h ([3]; brain, 1 h, BLQ assumed to be 0.0, read-out: brain calculated concentration, Mean): 4.13 ng/g
- concentration at 1 h ([3]; brain, 1 h, read-out: brain calculated concentration, individual (Group 1-3)): 6.21 ng/g
- concentration at 0.25 h ([3]; plasma, 0.25 hr (15 min), read-out: plasma concentration, Mean): 642 ng/mL
- concentration at 0.25 h ([3]; plasma, 0.25 hr, read-out: plasma concentration, individual (Group 1-3)): 575 ng/mL
- concentration at 1 h ([3]; plasma, 1 hr, read-out: plasma concentration, Mean): 70.4 ng/mL
- concentration at 3 h ([3]; plasma, 3 hr, read-out: plasma concentration, Mean): 7.64 ng/mL
- concentration at 3 h ([3]; plasma, 3 hr, read-out: plasma concentration, individual (Group 1-3)): 6.78 ng/mL
